# Measurements taken from PubChem BioAssay (NCI).
# Where “and” joins values, the source holds several entries; their conditions need not be identical. Identical values can stand only once.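 Interpolation was linear, between the two tested concentrations surrounding the appropriate level; five concentrations were tested over 48 hours in 96-well plates. Here, GI50 denotes the concentration required for 50% inhibition of growth. TGI: total growth inhibition.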
# Key:
# Assay in all cases: inhibition of tumour cell growth, NCI panel, 48 h
# CAKI-1 renal = system: CAKI-1 renal
# UACC-257 melanoma = system: UACC-257 melanoma
# BT-549 breast = system: BT-549 breast
# SF-295 CNS = system: SF-295 CNS
# A498 renal = system: A498 renal
# HL-60(TB) leukemia = system: HL-60(TB) leukemia
# KM12 colon = system: KM12 colon
# HOP-92 NSCLC = system: HOP-92 NSCLC
# NCI-H460 lung = system: NCI-H460 lung
# UO-31 renal = system: UO-31 renal
Compound,GI50 (CAKI-1 renal),TGI (CAKI-1 renal),GI50 (UACC-257 melanoma),TGI (UACC-257 melanoma),GI50 (BT-549 breast),TGI (BT-549 breast),GI50 (SF-295 CNS),TGI (SF-295 CNS) [µM],GI50 (A498 renal),TGI (A498 renal) [µM],GI50 (HL-60(TB) leukemia),TGI (HL-60(TB) leukemia) [µM],GI50 (KM12 colon),TGI (KM12 colon),GI50 (HOP-92 NSCLC),TGI (HOP-92 NSCLC),GI50 (NCI-H460 lung) [µM],TGI (NCI-H460 lung) [µM],GI50 (UO-31 renal),TGI (UO-31 renal)
COc1cc(/C=C/C(=O)c2cccc(-n3cc(-c4ccc(Cl)cc4)[nH]c3=O)c2)cc(OC)c1OC,15.6 µM,95.5 µM,17.4 µM,90.9 µM,12.3 µM,79.9 µM,24.3 µM,> 100,30.2 µM,> 100,15.7 µM,> 100,5.45 µM,18.6 µM,> 100 µM,> 100 µM,3.74,11.8,7.03 µM,21.3 µM
CC(=O)NCc1cccc(C#Cc2cncnc2Nc2ccc(OCc3cccc(F)c3)c(Cl)c2)c1,2.04 µM,> 23.7 µM,12.3 µM,> 25 µM,13.5 µM,> 25 µM,8.02 µM,> 25,3.52 µM,24.8,7.76 µM,> 22.5,11.1 µM,> 25 µM,5.66 µM,> 25 µM,10.6,> 25,3.25 µM,> 21.1 µM
O=C1OC(C(O)CO)C(O)=C1O (stereo not given),1880 µM and 2150 µM,3350 µM and 4620 µM,1870 µM and > 3610 µM,3730 µM and > 5150 µM,2190 µM and 2510 µM,4330 µM and > 5710 µM,6830 µM and > 4590 µM,> 10000,4650 µM and > 10000 µM,> 10000,5590 µM and 5090 µM,> 10000,1790 µM and > 3990 µM,3270 µM and > 5430 µM,2060 µM and > 10000 µM,4480 µM and > 10000 µM,> 10000,> 10000,1760 µM and 1380 µM,3170 µM and 2720 µM
COC1=C(OC)C(=O)C(SC/C=C(\C)CCCC(C)CCCC(C)CCCC(C)C)=CC1=O (stereo not given),6.64 µM,> 37 µM,2.71 µM,> 100 µM,0.993 µM,10.2 µM,0.734 µM,2.88,1.57 µM,6.05,0.359 µM,3.41,0.934 µM,> 87.9 µM,1.41 µM,6.65 µM,0.95,> 32.7,1.24 µM,> 27.2 µM
